The text below walks through data of patent publication EP0934940A1, “CYTOKINE PRODUCTION INHIBITORS, TRIAZEPINE COMPOUNDS, AND INTERMEDIATES THEREOF” (Japan Tobacco Inc., priority 1996, dated 1997).

For orientation: pIC50 means the negative decadic logarithm of the IC50, by convention in mol/L.

Experiment [1] concerns IL-6. Put plainly: Inhibitory activity on IL-6 production from LPS-stimulated human PBMC (ELISA). The note with it: 24 h; for pIC50: human PBMC, LPS 10 µg/ml, incubation 24 hours, supernatant ELISA, read-out: IL-6 IC50. Type of experiment: cell-based. On the procedure:
(§1) Inhibitory activity on cytokine production from human PBMC (peripheral blood mononuclear cell)
(§2) PBMC fractions were isolated from human blood using a mono-poly resolving medium. The cells (PBMC) were cultured in 5% FCS (fetal calf serum)/RPMI1640 medium. Thereafter, the test compound was added to the final concentration of 0.001-10 µM, and LPS (lipopolysaccharide) was added to the final concentration of 10 µg/ml. After incubatioin for 24 hours, the supernatant was separated and freeze stocked at -80°C.
(§3) On the day of experiment, the supernatant was thawed and the production amount of cytokine was measured by ELISA. IL-6 was assayed using [(h)IL-6] human, ELISA system (Amersham); TNF-α was assayed using [(h)TNF-α] human, ELISA system (Amersham); GM-CSF was assayed using human GM-CSF immunoassay (R&D systems); and IL-8 was assayed using human IL-8 immunoassay (R&D systems). The determination method followed the method of each kit. The results are expressed in IC50.
In general terms: In an ELISA, binding on a coated surface is turned into a signal by an enzyme label.

The subject of experiment [2] is TNF-α. Put plainly: Inhibitory activity on TNF-α production from LPS-stimulated human PBMC (ELISA). Type of experiment: cell-based. As to conditions: for pIC50: human PBMC, LPS 10 µg/ml, incubation 24 hours, supernatant ELISA, read-out: TNF-α IC50. On the procedure:
as §1, §2, §3

Experiment [3] has as its system IL-6. Put plainly: Inhibitory activity on in vivo IL-6 production by LPS stimulation. As to conditions: male ICR mice, LPS stimulation i.v., test compound 10 mg/kg p.o. at the same time, blood two hours later, relative to 0.5% CMC-Na group; for inhibition in vivo at 10 mg/kg: Mus musculus, po, 2 h, read-out: Inhibtion (%) of plasma IL-6 production (10 mg/kg, p.o.). The protocol: Inhibitory activity on in vivo IL-6 production by LPS stimulation
LFS (0.3 mg/kg) was intravenously administered to male ICR mice (6-week-old) fasted for 24 hours. At the same time, the test compound suspended in 0.5% CMC-Na ( carboxymethylcellulose sodium) was orally administered at the dose of 10 mg/kg.
Two hours later, blood was taken from eyegrounds. The blood was centrifuged, and the plasma fraction was diluted and quantitatively assayed for IL-6 in blood by ELISA (Endogen EM-IL6). The inhibitory percentage of the group administered with the test compound was expressed relative to the amount of IL-6 in blood of the cup administered with 0.5% CMC-Na.

In a further experiment the test system is IL-8. Put plainly: Inhibitory activity on IL-8 production from LPS-stimulated human PBMC (immunoassay). As to conditions: 24 h, read-out: IL-8 IC50 (µM). The format is cell-based. The protocol:
as §1, §2, §3

The subject of the next experiment is GM-CSF. Put plainly: Inhibitory activity on GM-CSF production from LPS-stimulated human PBMC (immunoassay). The note with it: 24 h, read-out: GM-CSF IC50 (µM). Type of experiment: cell-based. The protocol: as §1, §2, §3
In experiment [4] the test system is TNF-α. Put plainly: Inhibitory activity on in vivo TNF-α production by LPS stimulation. As to conditions: male ICR mice, 30 mg/kg p.o. 30 minutes before LPS 0.3 mg/kg i.v., blood one hour after LPS, relative to 0.5% CMC-Na group. The protocol:
Inhibitory activity on in vivo TNF-α production by LPS stimulation
The test compound suspended in 0.5% CMC-Na (carboxymethylcellulose sodium) was orally administered at the dose of 30 mg/kg to male ICR mice (6-week-old) fasted for 24 hours. At 30 minutes after oral administration, LPS was intravenously administered at the dose of 0.3 mg/kg. At one hour after LSP administration, blood was taken from the heart. The TNF-α in plasma was assayed by ELISA (Genzyme). The suppression of TNF-α production of the group administered with test compounds was calculated by the following formula. Inhibition (%) =[1-(test compound administered group)/(0.5% CMC-Na administered group)]× 100 [formula]

The next experiment deals with IL-2. Put plainly: Inhibitory activity on IL-2 production in concanavalin A-stimulated spleen cells. The format is cell-based, Balb/c mice. As to conditions: Balb/c mouse spleen cells, 5 µg/ml concanavalin A, 24 hours, EIA. The protocol:
(§4) Inhibitory activity on IL-2 and IFNγ production
(§5) The spleen cells obtained from 9-week-old Balb/c mice (Charles River Japan, Inc.) was suspended in RPMI-1640 medium supplemented with 10% FCS, at 4 × 10^6 cells/ml. The suspended cells were incubated in a 96 well plate (0.25 ml per well) in the presence of 5 µg/ml concanavalin A. The cells were cultured with or without addition of various concentrations of test compounds. After 24 hours' incubation, the culture broth was taken for assay of cytokine and preserved at -80°C. The concentrations of IL-2 and IFNγ in the culture broth were measured using an EIA kit (perSeptive Diagnostic) according to the attached protocol. The results are expressed in IC50.

A further experiment deals with IFNγ. Put plainly: Inhibitory activity on IFNγ production in concanavalin A-stimulated spleen cells. Type of experiment: cell-based, Balb/c mice. The note with it: Balb/c mouse spleen cells, 5 µg/ml concanavalin A, 24 hours, EIA. On the procedure: as §4, §5
The subject of a further experiment is Adjuvant arthritis (AIA). Nature of the experiment: Effects on rat adjuvant arthritis (hind limb edema). The format is in vivo. The note with it: Lewis rats, 10 mg/kg p.o. once a day for 28 days from day 0, hind limb edema at day 28, mean±standard error, **p < 0.01. The protocol: Effects on rat adjuvant arthritis
Lewis rats (5-week-old, Charles River Japan, Inc.) were used for the test. Adjuvant arthritis (AIA) was induced by injection (0.5 mg) of Mycobacterium butyricum (Difco) suspended in paraffin oil, from the root of the tail at day 0. The volume of the hind limb was measured with time after the injection of adjuvant. The test compound was suspended in 0.5% HPMC (hydroxypropylmethycellulose) and orally administered at the dose of 10 mg/kg once a day for 28 days from day 0. The suppression of edema of hind limb at day 28 was calculated as follows. Suppression (%) = 100 ×((AIA treated group-AIA control group))/((normal control group-AIA control group)) [formula]
The results are shown in mean±standard error and tested by Student-test. The result was significant when p value was less than 0.05.

pIC50: −log10 of the molar value. Structures can show the parent of a compound that is named as a salt. Where two headings read alike, the source gives them in different places.

In the case of `Cc1cc2c(s1)-n1c(C)nnc1N(Cc1ccc(-c3nnnn3C)cc1)N=C2c1ccccc1` [Example 16], the IC50 was determined as 0.3 µM in the experiment with IL-6 [1] (read-out: IL-6 IC50 (µM), human PBMC, LPS 10 µg/ml, incubation 24 hours, supernatant ELISA) and 0.06 µM in the experiment with TNF-α [2] (Homo sapiens, PBMC, 24 h, read-out: TNF-α IC50 (µM), human PBMC, LPS 10 µg/ml, incubation 24 hours, supernatant ELISA). Also, in the experiment on IL-6 [3], the “Inhibtion (%) of plasma IL-6 production (10 mg/kg, p.o.)” value was 84%.
In the case of `Cc1nnc2n1-c1ccccc1C(c1ccc(N)cc1)=NN2Cc1ccc(Cl)cc1` [Synthetic Example 191, 4-[4-(4-Chlorobenzyl)-1-methyl-4H-2,3,4,5,10b-pentaazabenz[e]azulen-6-yl]phenylamine hydrochloride], the pIC50 in the experiment on IL-6 [1] was 9.00; with TNF-α [2] (Homo sapiens, PBMC, 24 h), 9.00. Further, in the experiment on IL-6 [3], the inhibition in vivo at 10 mg/kg turned out to be 62%.
Turning to `Cc1nnc2n1-c1ccccc1C(c1ccccc1)=NN2Cc1ccncc1` [Synthetic Example 95, 1-Methyl-6-phenyl-4-(pyridin-4-ylmethyl)-4H-2,3,4,5,10b-pentaazabenz[e]azulene], the inhibition in vivo at 10 mg/kg in the experiment on IL-6 [3] was found to be 78%.
As to `Cc1nnc2n1-c1ccccc1C(c1ccc(N)cc1)=NN2Cc1ccc([N+](=O)[O-])cc1` [Synthetic Example 193, 4-[1-Methyl-4-(4-nitrobenzyl)-4H-2,3,4,5,10b-pentaazabenz[e]azulen-6-yl]phenylamine hydrochloride], the pIC50 was > 9.00 in the experiment with IL-6 [1] and 9.00 in the experiment with TNF-α [2] (Homo sapiens, PBMC, 24 h). For the same compound, the inhibition in vivo at 10 mg/kg in the experiment with IL-6 [3] turned out to be 67%.
With `Cc1nnc2n1-c1ccccc1C(c1ccc(Cl)cc1)=NN2Cc1cccnc1` [compound 19], the IC50 was 0.26 µM in the experiment on IL-8 and 0.05 µM in the experiment on GM-CSF. In addition, the “Inhibition (%) of plasma TNF-α production (30 mg/kg, p.o.)” value in the experiment with TNF-α [4] is 51%. Further, the pIC50 in the experiment with IL-2 was 6.62; in the experiment with IFNγ it was 6.92. The “Suppression (%) of edema” value in the experiment with Adjuvant arthritis (AIA) is on record as 72.7±3.3** %.
Turning to `Cc1ccc2c(c1)-n1c(C)nnc1N(Cc1ccncc1)N=C2c1ccccc1` [Synthetic Example 97, 1,9-Dimethyl-6-phenyl-4-(pyridin-4-ylmethyl)-4H-2,3,4,5,10b-pentaazabenz[e]azulene], the inhibition in vivo at 10 mg/kg in the experiment on IL-6 [3] amounted to 98%.
Still for that read-out and setting: the figure for `Cc1cc2c(s1)-n1c(C)nnc1N(Cc1ccc(C#N)cc1)N=C2c1ccccc1` [Synthetic Example 122, 6-(4-Cyanobenzyl)-2,9-dimethyl-4-phenyl-6H-5,6,7,8,9a-pentaazathieno[2,3-e]azulene] is 71%.
As to `Cc1nnc2n1-c1ccccc1C(c1ccc(Cl)cc1)=NN2Cc1ccc[n+]([O-])c1` [Example 1, 3-[6-(4-Chlorophenyl)-1-methyl-4H-2,3,4,5,10b-pentaazabenz[e]azulen-4-ylmethyl]pyridine-1-oxide], the pIC50 in the experiment with TNF-α [2] (Homo sapiens, PBMC, 24 h) is 7.00; in the experiment on TNF-α [2] it was 6.89. The inhibition in vivo at 10 mg/kg with IL-6 [3] turned out to be 73%.
With `Cc1sc2c(c1C)C(c1ccccc1)=NN(Cc1ccncc1)c1nnc(C)n1-2` [Synthetic Example 125, 2,3,9-Trimethyl-4-phenyl-6-(pyridin-4-ylmethyl)-6H-5,6,7,8,9a-pentaazathieno[2,3-e]azulene], in the experiment on IL-6 [3], the inhibition in vivo at 10 mg/kg is 84%.
On the same count and under the same terms, the figure for `CCc1cc2c(s1)-n1c(C)nnc1N(Cc1ccncc1)N=C2c1ccc(Cl)cc1` [Synthetic Example 118, 4-(4-Chlorophenyl)-2-ethyl-9-methyl-6-(pyridin-4-ylmethyl)-6H-5,6,7,8,9a-pentaazathieno[2,3-e]azulene] is 75%.
Take `Cc1nnc2n1-c1ccccc1C(c1ccc(N)cc1)=NN2Cc1ccc(C#N)cc1` [Synthetic Example 192, 4-[4-(4-Cyanobenzyl)-1-methyl-4H-2,3,4,5,10b-pentaazabenz[e]azulen-6-yl]phenylamine hydrochloride]: the pIC50 is 7.52 in the experiment with IL-6 [1] and 7.70 in the experiment with TNF-α [2] (Homo sapiens, PBMC, 24 h). In the experiment with IL-6 [3], the inhibition in vivo at 10 mg/kg is 67%.
In the case of `Cc1ccc(CN2N=C(c3ccc(Cl)cc3)c3ccccc3-n3c(C)nnc32)cc1` [Synthetic Example 54, 6-(4-Chlorophenyl)-1-methyl-4-(4-methylbenzyl)-4H-2,3,4,5,10b-pentaazabenz[e]azulene], the inhibition in vivo at 10 mg/kg in the experiment with IL-6 [3] amounted to 56%.
The same measure, in the same setting: the figure for `Cc1nnc2n1-c1ccccc1C(c1ccc(Cl)cc1)=NN2Cc1ccncc1` [Synthetic Example 86, 6-(4-Chlorophenyl)-1-methyl-4-(pyridin-4-ylmethyl)-4H-2,3,4,5,10b-pentaazabenz[e]azulene] is 89%.
Take `CCc1cc2c(s1)-n1c(C)nnc1N(Cc1ccncc1)N=C2c1ccccc1` [Synthetic Example 127, 2-Ethyl-9-methyl-4-phenyl-6-(pypidin-4-ylmethyl)-6H-5,6,7,8,9a-pentaazathieno[2,3-e]azulene]: the “Inhibtion (%) of plasma IL-6 production (10 mg/kg, p.o.)” value with IL-6 [3] turned out to be 83%.
The same measure, in the same setting: the figure for `Cc1ccc2c(c1)-n1c(C)nnc1N(Cc1ccc(C#N)cc1)N=C2c1ccc(Cl)cc1` [Synthetic Example 108, 6-(4-Chlorophenyl)-4-(4-cyanbenzyl)-1,9-dimethyl-4H-2,3,4,5,10b-pentaazabenz[e]azulene] is 70%.
As for `Cc1sc2c(c1C)C(c1ccc(Cl)cc1)=NN(Cc1ccc(C#N)cc1)c1nnc(C)n1-2` [Synthetic Example 115, 4-(4-Chlorophenyl)-6-(4-cyanobenzyl)-2,3,9-trimethyl-6H-5,6,7,8,9a-pentaazathieno[2,3-e]azulene], the inhibition in vivo at 10 mg/kg in the experiment on IL-6 [3] came out at 75%.
